Measured values taken from patent US20240368534A1 (priority 2021, published 2024).
Where two headings read alike, the source gives them in different places.

Columns and labels:
[1] = tested on: transcription factor DmpR; type: cell-based, Pseudomonas spp. CF600
[2] = tested on: OPH-E. coli/S. oneidensis mixtures; type: cell-based; settings: for anodic current: 20 μM; for charge produced / charge relative to cell only baseline: at 24 hours
[3] = tested on: OPH-E. coli/S. oneidensis mixtures; type: cell-based
[4] = tested on: transcription factor DmpR; type: cell-based, Pseudomonas spp. CF600; remark: listed apart in the source
[5] = tested on: engineered S. oneidensis; type: cell-based
[6] = biological target: T1, organophosphate hydrolase (OPH) displayed on E. coli (Brevundimonas diminuta, UniProt P0A434); type: biochemical, Pseudomonas diminuta
T1 construct: expressed in transfected cells; host or cells: E. coli BL21 (DE3) carrying pSKB3-INPNC-OPH, IPTG-induced, lyophilized whole cells

## Cc1ccc(O)c(O)c1 [4-methylcatechol]
[1]
  GFP fluorescence response: very low fluorescence

## NCCc1ccc(O)c(O)c1 [dopamine]
[1]
  GFP fluorescence response: very low fluorescence

## Oc1ccc(O)cc1 [hydroquinone]
[1]
  GFP fluorescence response: very low fluorescence

## CCOC(=O)CC(SP(=O)(OC)OC)C(=O)OCC (stereo not shown) [malaoxon]
[2]
  total charge accumulated: 0.068±0.006 mA*h
  anodic current: no significant current
[3]
  GFP expression: GFP expression was not observed

## O=[N+]([O-])c1ccc(O)cc1 [p-NP, p-nitrophenol]
[4]
  GFP expression response: logarithmic increase in GFP expression
[5]
  anodic current: continuous increase in anodic current
  total charge: 1.32±0.48 mA*h
[1]
  increase in GFP fluorescence: 54 fold
  lowest concentration at which fluorescence observed: 6.25 µM

## COP(=O)(OC)Oc1ccc([N+](=O)[O-])cc1 [paraoxon-methyl]
[2]
  total charge accumulated: 1.03±0.31 mA*h
  anodic current: increase in anodic current
[3]
  increase in GFP fluorescence: 48 fold
[6]
  degradation rate: significantly enhanced degradation rates
  rate of p-NP production: very slow rates of p-NP production

## CCOP(=O)(OCC)Oc1ccc([N+](=O)[O-])cc1 [paraoxon]
[5]
  anodic current: did not yield a considerable current
  total charge: 0.21±0.02 mA*h
[2]
  charge accumulation: 0.140±0.02 mA*h
  limit of detection of the sensor: 0.15 µM
  total charge accumulated: 1.64±0.18 mA*h
  anodic current: increase in anodic current
[2]; 1 μM
  charge produced: 0.101±0.017 mA*h
  charge relative to cell only baseline: 1.7 times
[2]; 5 μM
  charge produced: 0.180±0.018 mA*h
  charge relative to cell only baseline: approximately three times higher
[1]
  GFP fluorescence response: No such increase in the fluorescence
[6]; read-out: Michaelis constant (KM)
  Km: 198 ± 81.7 µM

## CCOP(=S)(OCC)Oc1ccc([N+](=O)[O-])cc1 [parathion]
[2]
  total charge accumulated: 1.04±0.66 mA*h
  anodic current: increase in anodic current
[3]
  increase in GFP fluorescence: 58 fold
